Here are results for 1 compound from patent US20240239792A1, “MODULATORS OF BCL-2 OR BCL-2/BCL-XL AND USES THEREOF” (APPICINE THERAPEUTICS (HK) LIMITED, priority 2021, published 2024).

SMILES strings stand for the structures. A value given as a limit tells only on which side of the number the result lay.

One series addresses T1, CYP2C9 (Homo sapiens, UniProt P11712).
T1 construct: from tissue; host or cells: human liver microsomes
Nature of the series: CYP2C9 activity assay in human liver microsomes, substrate diclofenac. The series is classed as in vitro ADME. Conditions: probe diclofenac, test compound 1 μM, 37° C. 10 min, read-out: Inhibition rate (%) against CYP2C9 Enzyme. As to the method: In this assay, several exemplary compounds of the present disclosure and a control compound (Venetoclax) were used as the test compounds. In general, the assay was conducted by the following steps: • 1. The solution of test compound, human liver microsomes solution, and substrate (diclofenac) solution were mixed in a 96-well assay plate on ice to, and the final concentration of each test compound is 1 μM; • 2. The 96-well assay plate and NADPH solution were pre-incubated at 37° C. for 5 minutes; • 3. NADPH solution was added to into the assay plates to initiate the reaction; • 4. The assay plate was incubated at 37° C. for 10 min; • 5. The reaction was stopped; and after quenching, a portion of the supernatant was taken from each well for LC/MS analysis; • 6. The inhibition rate was calculated by the following equation: Inhibition rate (%)=(1−Valuetest/Valuecontrol)×100%, where Valuetest refers to the LC/MS data obtained from wells with test compounds and Valuecontrol refers to the LC/MS data obtained from wells without test compound.
Background: Liver microsomes are vesicles of endoplasmic reticulum, rich in cytochrome P450 enzymes.

Series [1] relates to RS4;11 subcutaneous xenograft tumor. As to the kind of experiment: In vivo pharmacodynamic study, NOD/SCID RS4;11 subcutaneous xenograft tumor model. Further details: species or system NOD/SCID female mouse. To be noted: 50 mg/kg; p.o.; q.d.; after 20 days dosing. As to the method:
In general, NOD/SCID RS4;11 subcutaneous xenograft tumor model was established by inoculating 5*10^6/0.1 ml/mouse subcutaneously in the right back of the NOD/SCID female mouse. The animals were checked daily for any effects of treatments on behaviors such as mobility, food and water consumption, body weight gain/loss, eyes, hairs and any other abnormalities. Mortality and clinical signs observed during the study were recorded in the raw data. Animal weight and tumor size were measured every two days during the study. Tumor volume (TV) was calculated as: TV=0.5*a*b^2, wherein a and b represent the measured length and width of tumor, respectively. Relative tumor proliferation inhibition rate (TGIRTV (%)), as an indication of anti-tumor effectiveness, was calculated as: TGIRTV (%)=(1−TRTV/CRTV)*100%, wherein TRTV and CRTV were relative tumor volume (RTV) in treatment group and vehicle control group, respectively. RTV was calculated as: RTV=Vt/V0, wherein Vt and V0 represented the tumor volume measured on day t after dosing and on the first day of dosing. At the end of last dosing, plasma and tumor tissue were collected, weighed, and photographed according to requirements of the study protocol.
The TGIRTV(%) values after 20 days dosing were shown in Table 5 below, where “+++” represented TGIRTV(%)≥[…]; “++” represented 30%<TGIRTV(%)<80%. p.o. stands for “per os”; I.P. stands for “intraperitoneal”; q.d. refers to “once daily”.

A further series concerns the target T2, BCL-2 (Homo sapiens, UniProt P10415).
T2 construct: purchased Cisbio 63ADK000CB01PEG
As to the kind of experiment: HTRF BCL-2/BAK assay (Cisbio). The series is classed as binding. Conditions: recombinant human Tag1-BCL-2 2 nM, Tag2-BAK 10 nM. As to the method:
(§1) Then the pre-mixed anti-Tag1-Eu^3+ and anti-tag2-XL665 were added to the plate and further incubated at room temperature for another 2 hours. The signals ([…]) were read on Envision 2104 instrument. The IC50 for each compound was derived from fitting the signal of 665/615 nM to the increasing compound concentration.
(§2) Using the above assays, the following compounds were tested.
(In general: TR-FRET usually uses a lanthanide donor and a delayed reading to cut background.)

Another series concerns the target T3, BCL-XL (Homo sapiens, UniProt Q07817).
T3 construct: purchased Cisbio 63ADK000CB04PEG
Nature of the series: HTRF BCL-XL/BAK assay (Cisbio). The format is binding. To be noted: recombinant human Tag1-BCL-XL 2 nM, Tag2-BAK 5 nM. As to the method:
as §1, §2

The next series relates to DOHH2 cells. Nature of the series: CellTiter-Glo cell proliferation assay, DOHH2 cells. The format is cell-based. Conditions: Homo sapiens, DOHH-2, 72 hours. The procedure, abridged:
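DOHH2 cells seeded in DMEM + 10% FBS, exposed to serially diluted compound for 72 h at 37 °C, 5% CO2. Viability read by CellTiter-Glo luminescence; GI50 calculated.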

T1 sequence (P11712 whole entry): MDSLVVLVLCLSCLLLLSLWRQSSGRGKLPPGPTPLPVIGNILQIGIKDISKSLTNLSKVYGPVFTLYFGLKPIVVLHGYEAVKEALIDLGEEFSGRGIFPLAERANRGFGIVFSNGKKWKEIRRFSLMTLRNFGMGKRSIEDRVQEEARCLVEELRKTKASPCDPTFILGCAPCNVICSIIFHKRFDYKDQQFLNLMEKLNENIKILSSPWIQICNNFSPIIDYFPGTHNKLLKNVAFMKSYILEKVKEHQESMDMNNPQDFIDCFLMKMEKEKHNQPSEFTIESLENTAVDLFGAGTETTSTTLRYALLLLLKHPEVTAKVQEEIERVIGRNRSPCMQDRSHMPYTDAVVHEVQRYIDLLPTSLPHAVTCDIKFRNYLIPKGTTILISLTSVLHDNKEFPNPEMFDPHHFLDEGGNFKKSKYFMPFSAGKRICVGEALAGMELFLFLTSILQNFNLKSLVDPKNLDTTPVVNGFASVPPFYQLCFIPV
T3 sequence (Q07817 whole entry): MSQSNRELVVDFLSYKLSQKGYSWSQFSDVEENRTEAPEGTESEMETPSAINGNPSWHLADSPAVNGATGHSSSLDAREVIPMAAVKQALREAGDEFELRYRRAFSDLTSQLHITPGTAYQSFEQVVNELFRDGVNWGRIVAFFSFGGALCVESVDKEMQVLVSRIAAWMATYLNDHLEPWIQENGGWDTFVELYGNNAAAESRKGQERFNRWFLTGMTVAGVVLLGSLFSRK
T2 sequence (P10415 whole entry): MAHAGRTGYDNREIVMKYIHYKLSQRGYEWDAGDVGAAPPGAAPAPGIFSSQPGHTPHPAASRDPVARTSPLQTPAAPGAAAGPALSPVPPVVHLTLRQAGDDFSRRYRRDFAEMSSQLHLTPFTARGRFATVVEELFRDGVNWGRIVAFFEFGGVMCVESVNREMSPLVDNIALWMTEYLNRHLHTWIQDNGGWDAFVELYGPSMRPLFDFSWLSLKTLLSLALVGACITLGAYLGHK

Consider `O=C(NS(=O)(=O)c1ccc(NCC2CC3(CCN(CCF)CC3)C2)c([N+](=O)[O-])c1)c1ccc(N2CCN([C@@H]3CCCCc4c(Cl)cccc43)CC2)cc1Oc1cnc2[nH]ccc2c1` [Compound 114, (R)-2-((1H-pyrrolo[2,3-b]pyridin-5-yl)oxy)-4-(4-(1-chloro-6,7,8,9-tetrahydro-5H-benzo[7]annulen-5-yl)piperazin-1-yl)-N-((4-(((7-(2-fluoroethyl)-7-azaspiro[3.5]nonan-2-yl)methyl)amino)-3-nitrophenyl)sulfonyl)benzamide], for which, at CYP2C9, the inhibition at 10 min, 1 µM was under 30%. Moreover, the “TGIRTV(%)” value in series [1] is reported as “+++ (TGIRTV(%)≥800)”. The IC50 on BCL-2 and at BCL-XL was under 20 nM each time. In the series on DOHH2 cells, the GI50 is under 50 nM.

A word on the inhibition: it is the drop in the measured response relative to a control, in per cent. The term IC50 denotes the concentration needed to halve the response being measured. A word on the GI50: it is the concentration that inhibits growth by half. Higher therefore signals lower sensitivity of the cells.
